Results published in EP0598011B1, “ECDYSTEROID DEPENDENT REGULATION OF GENES IN MAMMALIAN CELLS” (GENENTECH, INC., priority 1991, dated 1993).

Assays:
Type in all cases: cell-based
[1] = test system: X4C-33CO; assay: Lex-operator reporter X4C-33CO, control effector plasmid without receptor cDNA; settings: SD in parentheses
Text: (§1) Such fusion constructs are expected to be useful in regulating the expression of exogenous genes introduced into transgenic mammals or mammalian cells. I next determined if the DHR23α ligand-binding domain could be used to regulate the activity of a DNA-binding domain not normally expressed in mammalian cells. I constructed the chimeric gene GLxEc by replacing the sequences coding for the GR DNA-binding domain in the GGEc fusion with those encoding the DNA-binding domain of the Escherichia coli LexA repressor (J. W. Little and S. A. Hill, Proc. Natl. Acad. Sci. U.S.A. 82, 2301 [1985]) (Fig. 4). A reporter gene, X4C-33CO was constructed that contains 4 copies of a 26-bp lex operator (R. Brent and M. Ptashne, Nature 312, 612 [1984]) at position -33 of the CMV promoter. GLxEc had no effect on the expression of a OC-33CO, a reporter gene lacking the lex operator (Fig. 6B).
(§2) Illustrated in Table 2 is the transcriptional activation by receptor-LexA fusion proteins. Effector plasmids encoding the indicated receptor proteins were transfected with a reporter gene either containing (X4C-33CO) or lacking (OC-33CO) lex-operators. […] The cells were incubated either with (+) or without (-) muristerone A. The fold induction was determined as described previously; the standard deviations are shown in parenthesis.

[2] = target: T1, EcEcEc (Drosophila melanogaster, UniProt P34021); assay: Induction of GRE reporter G4M-77CO by EcEcEc (DHR23α) in 293 cells; design: To isolate the full-length DHR23α clones; expressed in transfected cells; host or cells: human 293 cells; settings: receptor EcEcEc, normalized to hGH, SD in parentheses, 2880 min
T1 sequence (P19793 whole entry): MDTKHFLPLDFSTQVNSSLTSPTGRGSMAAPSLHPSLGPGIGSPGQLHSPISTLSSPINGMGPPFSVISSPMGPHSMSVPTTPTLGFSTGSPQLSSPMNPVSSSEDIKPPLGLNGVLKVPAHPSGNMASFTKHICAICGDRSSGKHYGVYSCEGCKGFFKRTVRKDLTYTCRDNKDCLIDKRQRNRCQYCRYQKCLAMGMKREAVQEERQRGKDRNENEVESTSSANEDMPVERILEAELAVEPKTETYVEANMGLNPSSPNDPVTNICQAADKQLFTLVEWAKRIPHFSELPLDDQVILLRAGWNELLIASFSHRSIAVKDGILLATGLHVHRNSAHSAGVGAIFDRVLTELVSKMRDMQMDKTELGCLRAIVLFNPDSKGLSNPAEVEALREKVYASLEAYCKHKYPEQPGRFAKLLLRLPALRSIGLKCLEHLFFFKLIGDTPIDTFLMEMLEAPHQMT
T1 sequence (P34021 whole entry): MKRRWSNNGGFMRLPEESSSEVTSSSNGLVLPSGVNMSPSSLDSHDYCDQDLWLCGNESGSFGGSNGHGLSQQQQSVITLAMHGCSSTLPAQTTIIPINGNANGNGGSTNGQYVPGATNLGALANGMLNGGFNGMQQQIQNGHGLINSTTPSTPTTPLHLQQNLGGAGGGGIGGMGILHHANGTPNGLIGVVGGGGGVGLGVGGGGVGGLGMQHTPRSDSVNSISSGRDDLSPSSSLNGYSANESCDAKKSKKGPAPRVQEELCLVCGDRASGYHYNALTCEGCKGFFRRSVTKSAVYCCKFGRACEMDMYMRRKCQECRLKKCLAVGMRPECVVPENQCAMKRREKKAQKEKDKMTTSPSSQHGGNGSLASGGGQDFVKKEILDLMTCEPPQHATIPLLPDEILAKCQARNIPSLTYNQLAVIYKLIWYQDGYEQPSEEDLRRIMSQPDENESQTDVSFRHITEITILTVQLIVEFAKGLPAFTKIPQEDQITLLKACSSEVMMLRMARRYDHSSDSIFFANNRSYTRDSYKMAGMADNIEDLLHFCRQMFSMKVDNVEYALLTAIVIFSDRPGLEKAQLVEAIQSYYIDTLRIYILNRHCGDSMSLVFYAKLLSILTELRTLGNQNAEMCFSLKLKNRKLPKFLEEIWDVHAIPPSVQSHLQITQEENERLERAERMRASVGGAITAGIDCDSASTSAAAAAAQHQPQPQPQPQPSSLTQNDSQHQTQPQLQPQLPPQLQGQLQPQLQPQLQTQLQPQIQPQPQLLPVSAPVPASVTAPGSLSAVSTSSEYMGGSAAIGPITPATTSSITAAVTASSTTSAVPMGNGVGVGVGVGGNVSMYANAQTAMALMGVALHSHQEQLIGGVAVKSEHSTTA
Description: "G" and "Ec" refer to the glucocorticoid receptor and DHR23α, respectively.
293 cells were transfected with effector plasmids encoding the indicated receptor proteins and the reporter gene G4M-77CO. These transfected cells were incubated either without added hormone (-), with muristerone A (M) or with dex (D).

[3] = target: T2, GXEc (Drosophila melanogaster, UniProt P34021); assay: Reporter OC-33CO lacking lex-operators with GXEc; settings: receptor GXEc, SD in parentheses
T2 construct: expressed in transfected cells
T2 sequence (P34021 329-878): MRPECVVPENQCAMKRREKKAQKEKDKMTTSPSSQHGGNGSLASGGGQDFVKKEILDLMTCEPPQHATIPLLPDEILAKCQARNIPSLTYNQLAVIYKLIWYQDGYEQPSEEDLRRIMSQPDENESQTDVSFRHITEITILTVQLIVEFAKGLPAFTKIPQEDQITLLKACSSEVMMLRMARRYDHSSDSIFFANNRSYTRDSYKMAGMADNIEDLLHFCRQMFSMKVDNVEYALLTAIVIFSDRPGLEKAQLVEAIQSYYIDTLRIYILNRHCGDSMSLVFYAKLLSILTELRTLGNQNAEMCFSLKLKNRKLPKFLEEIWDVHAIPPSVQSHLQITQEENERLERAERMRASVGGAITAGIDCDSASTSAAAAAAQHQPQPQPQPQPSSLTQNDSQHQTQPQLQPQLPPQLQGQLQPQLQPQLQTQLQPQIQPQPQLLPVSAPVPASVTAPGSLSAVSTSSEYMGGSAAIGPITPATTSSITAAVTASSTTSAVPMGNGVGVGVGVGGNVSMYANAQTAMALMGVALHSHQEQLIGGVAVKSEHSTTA
Text: as §1, §2

[4] = target: T1, EcEcEc; assay: Lex-operator reporter X4C-33CO with EcEcEc (DHR23α); design: To isolate the full-length DHR23α clones; expressed in transfected cells; settings: receptor EcEcEc, SD in parentheses
Text: as §1, §2

[5] = target: T3, GGEc (Drosophila melanogaster, UniProt P34021); assay: Induction of GRE reporter G4M-77CO by chimeric receptor GGEc in 293 cells; settings: for fold induction: 293 cells, reporter G4M-77CO, normalized to hGH, SD in parentheses
T3 construct: expressed in transfected cells; host or cells: 293 cells
T3 sequence (P34021 329-878): T2 sequence (P34021 329-878)
Text: I choose to determine if the ligand-binding domain of DHR23a could be used to regulate the DNA-binding and transactivation domains of the mammalian glucocorticoid receptor for the following reasons. First, in contrast to DHR23α, high affinity DNA-binding sites for the GR have been identified (M. Beato, Cell 56, 335 [1989]) and reporter genes containing these sites are very strongly regulated. Thus, the sensitivity of our assays could be increased. Secondly, these chimeric receptors could be utilized to selectively regulate endogenous genes in mammalian cells in response to ecdysteroids. I constructed a chimeric gene, GGEc, in which the sequences encoding the ligand-binding domain of the GR were replaced with that of DHR23α (Fig. 4A). […] However, expression of the GRE-containing reporter gene was induced more than 700 fold by GGEc in muristerone-treated cells.

[6] = target: T4, VXEc (Drosophila melanogaster, UniProt P34021); assay: Lex-operator reporter X4C-33CO with VXEc; settings: receptor VXEc, SD in parentheses
T4 construct: expressed in transfected cells
T4 sequence (P34021 329-878): T2 sequence (P34021 329-878)
Text: Finally, I determined if the activity of DHR23α fusion proteins could be further enhanced by inclusion of a potent viral transactivation domain. I constructed VGEc and VLxEc fusion genes by replacing a portion of the GR N-terminal activation domain in GGEc and GLxEc, respectively, with the herpes virus VP16 acidic activation domain (I. Sadowski et al., […]. 335, 563 [1988]; D. J. Cousens, R. Greaves, C. R. Coding, and P. O'Hare, EMBO J. 8, 2337 [1989]) (Fig. 4A). In transfected cells, these proteins accumulated to similar levels as derivatives lacking the VP16 activation domain (Fig. 4B). Both VGEc and VLxEc acted in an ecdysteroid-dependent fashion to induce activity of the appropriate reporter gene (Tables 1 and 2). However, the activity of VGEc and VLxEc was 5 and 10 fold greater than GGEc and GLxEc, respectively (M..A. Labow, S.B. Baim, T. Shenk, and A. J. Levine, Mol. and Cell. Biol. 10, 3343 [1990]). Thus, the DHR23α ligand-binding domain can be used to regulate the activities of viral, mammalian and bacterial DNA-binding or transactivation domains.
Illustrated in Table 2 is the transcriptional activation by receptor-LexA fusion proteins. […] The cells were incubated either with (+) or without (-) muristerone A. The fold induction was determined as described previously; the standard deviations are shown in parenthesis.

[7] = target: T2, GXEc; assay: Lex-operator reporter X4C-33CO with GXEc; settings: receptor GXEc, SD in parentheses
Text: as §1, §2

[8] = target: T5, G"E"Ec (UniProt P06536+P34021, G458E/S459G); assay: Induction of ERE reporter E4M-77CO by chimeric receptor G"E"Ec; settings: cells incubated 48 hrs
T5 construct: expressed in transfected cells
T5 sequence (P19793 whole entry): as the sequence (P19793 whole entry) above
T5 sequence (P06536+P34021 fused P06536:G458E/P06536:S459G): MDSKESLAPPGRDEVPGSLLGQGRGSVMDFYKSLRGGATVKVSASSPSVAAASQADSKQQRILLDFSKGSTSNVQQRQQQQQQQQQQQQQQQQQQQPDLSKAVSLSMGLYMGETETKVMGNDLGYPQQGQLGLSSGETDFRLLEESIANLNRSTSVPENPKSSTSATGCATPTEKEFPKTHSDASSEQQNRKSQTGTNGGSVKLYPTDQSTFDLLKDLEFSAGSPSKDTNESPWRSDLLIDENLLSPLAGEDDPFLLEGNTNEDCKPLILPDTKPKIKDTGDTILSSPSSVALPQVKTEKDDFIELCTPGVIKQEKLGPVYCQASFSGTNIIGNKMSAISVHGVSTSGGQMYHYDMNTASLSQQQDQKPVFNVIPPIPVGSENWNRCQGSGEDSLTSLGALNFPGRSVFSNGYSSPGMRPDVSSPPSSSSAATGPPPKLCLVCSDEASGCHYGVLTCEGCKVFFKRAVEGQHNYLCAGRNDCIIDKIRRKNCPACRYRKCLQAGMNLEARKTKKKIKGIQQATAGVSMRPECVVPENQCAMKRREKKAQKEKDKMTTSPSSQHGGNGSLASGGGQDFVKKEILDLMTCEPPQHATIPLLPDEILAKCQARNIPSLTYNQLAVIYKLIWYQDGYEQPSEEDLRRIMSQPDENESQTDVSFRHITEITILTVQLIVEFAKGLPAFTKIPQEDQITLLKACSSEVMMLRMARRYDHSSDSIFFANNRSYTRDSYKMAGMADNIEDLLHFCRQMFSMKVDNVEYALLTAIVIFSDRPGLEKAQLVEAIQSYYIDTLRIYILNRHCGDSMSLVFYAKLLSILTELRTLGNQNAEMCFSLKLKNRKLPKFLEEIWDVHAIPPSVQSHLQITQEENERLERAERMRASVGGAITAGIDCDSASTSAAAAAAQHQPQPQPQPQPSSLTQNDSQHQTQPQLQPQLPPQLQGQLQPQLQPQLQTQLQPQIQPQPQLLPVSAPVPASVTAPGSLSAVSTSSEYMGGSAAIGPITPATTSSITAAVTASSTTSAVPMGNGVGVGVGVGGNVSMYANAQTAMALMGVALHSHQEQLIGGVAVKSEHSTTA
Description: Figure. 6. Induction of […] (EREs) by chimeric receptors. Cells were transfected with expression plasmids encoding eiher DHR23α (EcEcEc), G"E"G or G"E"Ec and E4M-77CO, that contains 4 EREs fused to the MTV promoter. Cells were incubated for 48 hrs with or wihout (-) or with muristerone A (M) or dexamethasone (D).
I then determined if a DHR23 fusion protein could regulate genes normally responsive to estrogens.
Cells were transfected with expression plasmids encoding either DHR23α (EcEcEc), G"E"G or G"E"Ec and E4M-77CO, that contains 4 EREs fused to the MTV promoter. Cells were incubated for 48 hrs with or without (-) or with muristerone A (M) or dexamethasone (D). Reporter gene activity was determined as described above for Figure 2.

CC(C)CCC(O)[C@](C)(O)[C@H]1CC[C@@]2(O)C3=CC(=O)C4(O)CC(O)C(O)C[C@]4(C)[C@H]3C(O)C[C@]12C (some centres unmarked) [muristerone A, 2,3,5,11,14,20,22-Heptahydroxy-7-cholesten-6-one]
fold induction [1]: 1.1 (0.3) fold | fold induction [2]: 0.9 (0.2) fold | fold induction [3]: 0.9 (0.3) fold | fold induction [4]: 1.4 (0.1) fold | fold induction ([4]; listed as muristerone): not induced | fold induction [5]: more than 700 fold | fold induction ([5]; listed as M): 798 (57) fold | relative efficacies of ecdysteroids as agonists for the chimeric receptor ([5]; GRE reporter G4M-77CO): strong | fold induction [6]: 563 (61) fold | fold induction [7]: 44.3 (8.3) fold | regulation of ERE containing reporter gene E4M-77CO [8]: regulates the ERE containing reporter gene E4M-77CO in a muristerone-dependent fashion
